# Data taken from patent US20060140857A1, “Method of the administration of drugs with binding affinity for plasma protein and preparation to be used in the method” (NIHON MEDI-PHYSICS CO., LTD., priority 1999, published 2006).
# Columns and labels:
# [1] = Free fraction of 99mTc-MAG3 in rat blood after administration of bucolome; type: in vivo; details: rats, bucolome loading 20 mg/kg, FIG. 4
# Experimental: In the control group and test group with bucolome loading of 20 mg/kg of body weight, wherein the dose and other conditions were the same as mentioned above, except the decapitation time was prescribed at 2, 5 and 10 minutes, administrations and decapitations of rats were conducted so that 3-5 ml of blood per one rat were collected. Serum was separated using a sample tube, after that the free fraction was determined by the procedures as described in Example 1.
# [2] = target: human serum albumin (HSA) (Homo sapiens, UniProt P02768); experiment: Displacement of 99mTc-MAG3 binding to serum albumin, human serum, ultrafiltration; details: human serum, second drug added
# Chain of human serum albumin (HSA) (P02768 25-609): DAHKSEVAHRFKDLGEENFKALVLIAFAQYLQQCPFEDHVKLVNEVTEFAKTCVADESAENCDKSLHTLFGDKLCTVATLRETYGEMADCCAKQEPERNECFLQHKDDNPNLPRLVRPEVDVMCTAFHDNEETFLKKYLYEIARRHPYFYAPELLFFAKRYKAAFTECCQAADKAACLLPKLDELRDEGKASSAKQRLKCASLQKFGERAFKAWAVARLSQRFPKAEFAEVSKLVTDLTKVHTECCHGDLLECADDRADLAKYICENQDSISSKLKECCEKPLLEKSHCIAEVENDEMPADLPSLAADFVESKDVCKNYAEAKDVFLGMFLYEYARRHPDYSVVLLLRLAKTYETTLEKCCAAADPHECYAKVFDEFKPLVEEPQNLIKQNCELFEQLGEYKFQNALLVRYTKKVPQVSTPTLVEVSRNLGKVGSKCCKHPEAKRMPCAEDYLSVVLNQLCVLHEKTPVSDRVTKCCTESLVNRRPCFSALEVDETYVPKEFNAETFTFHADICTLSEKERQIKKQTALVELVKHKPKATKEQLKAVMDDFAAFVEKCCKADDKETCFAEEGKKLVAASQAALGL
# Experimental: Displacement test of ^99mTc-MAG3 binding to serum albumin was conducted as follows by use of human serum or rat serum and site-specific drugs (second drugs) with binding affinity for the binding site I or site II on albumin.
# First, albumin content in a normal human serum was measured previously, and the concentration of the human serum albumin (HSA) was adjusted to 500 μM by phosphate buffer (pH=7.4).
# Further, a site-specific drug with the binding affinity for the site I or the site II on HSA was added to the above-mentioned serum solution, as in the form of a methanol solution or an aqueous solution. As the sample solution for control group, only methanol or water was added to the above-mentioned serum solution.
# Next, a certain amount of ^99mTc-MAG3 (about 740 kBq/20 μl) was added to each of the sample and a certain amount (20-50 μl) of the sample was taken out as the specimen before ultrafiltration. […] Then, 20-50 μl each of the filtrates was taken out as the specimen after ultrafiltration. Radioactivities (cpm) of the specimens before and after ultrafiltration were measured, and the free fraction (%) of ^99mTc-MAG3 was calculated by the following equation: free fraction of ^99mTc-MAG3 (%)=[A]/[B] [A]: Radioactivity (cpm) after ultrafiltration, [B]: Radioactivity (cpm) before ultrafiltration
# serum albumin = serum albumin (Homo sapiens, UniProt P02768); experiment: Displacement of 99mTc-ECD binding to plasma protein, human serum; details: second drug 200 μM and 400 μM
# Chain of serum albumin (P02768 25-609): as above
# [3] = Biodistribution of 99mTc-MAG3 in rat loaded with bucolome; type: in vivo, Wister-strain rat; details: rats, bucolome loading, FIG. 3
# Experimental: Effect of second drug on biodistribution of ^99mTc-MAG3 in rat was examined using the control group and the test group with bucolome loading. ^99mTc-MAG3 (740 kBq/100 μl) was administered to the tail vein of Wister-strain rat. The rats were decapitated at 2, 5, 10 and 15 minutes after administration of ^99mTc-MAG3, then the blood and the organs of interest were excised. After measured the weight of these orgams, the radioactivities were determined. After decay correction of the radioactivity, the accumulation ratios (% dose/organ and % dose/g of the tissue) were determined.
# As for the rat of test group loaded with bucolome, 5 minutes before the administration of ^99mTc-MAG3, 20 mg/kg of body weight or 100 mg/kg of body weight of bucolome was administered to the tail vein.
compound,measurement,setting,value
"CCCCC1C(=O)NC(=O)N(C2CCCCC2)C1=O (stereo not shown) [bucolome, 5-n-butyl-1-cyclohexyl-2,4,6-trioxoperhydropyrimidine]",effect on free fraction of 99mTc-MAG3 in vivo,[1],remarkably increased
same,change of free fraction of 99mTc-MAG3 compared with control,[2],significantly increased
same,change of free fraction of 99mTc-ECD compared with control,serum albumin,also incresed
same,effect on blood clearance of 99mTc-MAG3,[3],accelarated
